Experimental data taken from paper PMC9694488, “Amyloid beta and its naturally occurring N-terminal variants are potent activators of human and mouse formyl peptide receptor 1” (The Journal of Biological Chemistry, 2022).

Legend:
hFPR1, hFPR2, hFPR3 = test: Ca2+ imaging, human FPRs taken together; format: cell-based; conditions: transfected HEK293T
ThT aggregation assay = format: physicochemical
Experimental: DMSO. ThT (Sigma-Aldrich) stock solutions were dissolved at 1 mM in the respective buffer, sterile filtered with […] pore membranes, and stored at −20 °C. […] Fluorescence measurements were carried out as 100 μl triplicates in black optical 384-well μCLEAR-plates (Greiner Bio-One) at 37 °C with excitation at 440 nm and emission at 484 nm in a FlexStation III microplate reader within 15 min after thawing of the peptides. Signals were measured in intervals of 60 s for 120 min and were shaken for 3 s before each read.

[1] = Transmission electron microscopy of aggregates; format: physicochemical; conditions: 30 μM, 24 h incubation
From the text: Samples were then stained with 4% uranyl acetate. Subsequently, TEM images were acquired (JEOL 1400 Transmission Electron Microscope) and then processed in ImageJ.

human and mouse FPRs = test: Ca2+ imaging, FPR-transfected HEK293T (several human and mouse FPRs taken together); format: cell-based
Experimental: (§2) All peptides were thawed at room temperature approximately 1 h before each functional experiment, as this time was needed to prepare the compound plates for each measurement.
(§3) HEK293T cells (ATCC) were cultured in Dulbecco’s Modified Eagle’s medium (DMEM, Biowest) supplemented with 10% (v/v) heat-inactivated fetal calf serum (FCS, Pan Biotech), 1 unit/ml penicillin-streptomycin (Biowest), and 2 mM L-glutamine (Biowest) until 80% confluence. For transfection, approximately 2000 cells were seeded in each well of poly-D-lysine–coated (PDL) (10 μg/ml in PBS, Sigma) black optical 96-well μCLEAR-plates (Greiner Bio-One). Cells were transfected after 24 h using jetPEI (Polyplus-transfection SA) with 0.125 μg of DNA plasmids encoding the respective receptors and equal amounts of a plasmid encoding the G protein subunit Gα16 since this subunit is needed to trigger FPR-dependent calcium signals in HEK293 cells ([50], [70]). The medium of transfected cells was changed 24 h after transfection. For mock transfections, the proportion of the FPR-containing plasmids were substituted by an empty pcDNA3.1 vector.
(§4) Cell population responses of transfected HEK293T cells and U87 cells were recorded using a Flexstation III microplate reader (Molecular Devices). Briefly, cells were incubated with 2 μM Calbryte 520 AM (AAC Bioquest) for 2 h at room temperature in C1 assay buffer with 5 mM glucose (Carl Roth). Before each experiment, cells were rinsed three times with C1. Experiments with HEK293T cells were conducted 48 h after transfection, while experiments with U87 cells were performed 24 h after seeding. Acquisition of baseline fluorescence was performed for 25 s before ligand application, and cell population response was measured for 125 s after application.

mFpr2 = test: Ca2+ imaging, HEK293T transiently transfected with mFpr2; format: cell-based, mouse
Experimental: as §2, §3, §4

mouse and human FPR1 = system: mouse and human FPR1; set-up: method as in Tiffany et al.; conditions: ref Tiffany et al.; cited from earlier work
monocytes and microglia = conditions: cited from earlier work
From the text: Factors such as the secondary structure, 3D conformation, and aggregation therefore seem to be of high importance for the precise activation pattern, and different receptor subtypes seem to prefer different peptide structures or exposed surfaces. Multiple previous studies have already shown that different buffer systems and solvents can critically influence properties of Aβ such as its aggregation kinetics and the structure ...

mFpr1 = test: Ca2+ imaging, HEK293T transiently transfected with mFpr1; format: cell-based, mouse; conditions: for Ca2+ response, mFpr1: n = 3, N = 2
[2] = system: rat microglia and astrocytes; conditions: cited from earlier work
From the text: (§1) The activation of PRRs by Aβ has become a recent focus in AD research because they have a special ability to potently trigger the reactive state ([14], [25]). Among these PRRs, FPRs are one of the promising targets for AD research ([12]). They belong to a small gene family of G protein–coupled receptors with three members in humans and seven in mice ([26]). FPRs are primarily expressed in the innate and adaptive immune system, where they contribute to the detection and elimination of bacterial pathogens ([27], [28], [29], [30]). However, they are also expressed in a number of cell types in the ...

[3] = system: neutrophils and murine glial cells; conditions: cited from earlier work
From the text: as §1

[4] = system: primary murine glia and in vitro FPR expression systems; conditions: cited from earlier work
From the text: as §1

human and murine FPR2 = conditions: cell lines transfected with human and murine FPR2; cited from earlier work
From the text: as §1

hFPR3 = test: Ca2+ imaging, HEK293T transiently transfected with hFPR3
Experimental: as §2, §3, §4

hFPR1 [5] = test: Ca2+ imaging, HEK293T transiently transfected with hFPR1; format: cell-based, human
hFPR2 = test: Ca2+ imaging, HEK293T transiently transfected with hFPR2; format: cell-based, human
Experimental: as §2, §3, §4

mFpr3 = test: Ca2+ imaging, HEK293T transiently transfected with mFpr3; format: cell-based, mouse; conditions: Aβ1-42 from P&E in C1 buffer; n = 3, N = 2
hFPR1 [6] = conditions: compared with this study; ref Le et al. and Slowik et al. (35, 42); cited from earlier work
[7] = CD spectroscopy (secondary structure); format: physicochemical; conditions: 30 μM in C1, sonicated 10 min, n = 3, N = 1
Experimental: CD spectra were recorded (JASCO J-1500 spectrometer) in a 1 mm High Precision Cell (Hellma Analytics). Data were processed in Spectra Analysis by JASCO and were plotted by Origin.

[8] = 5 μM Aβ1-42 from P&E, n = 3, N = 1
[9] = Aβ1-42 from Sigma-Aldrich, 10 μM, n = 3, N = 2
[10] = Ca2+ imaging, transfected HEK293T + Gα16, Calbryte 520, C1 buffer pH 7.2, n = 3, N = 1
[11] = HFIP-treated Aβ1-42 from Anaspec, 10 μM, n = 3, N = 2
[12] = different suppliers, buffers, storage, solvents
[13] = 5 μM Aβ1-42 from P&E dissolved in DMSO vs C1, n = 3, N = 2
[14] = Aβ1-42 from Synpeptide, 10 μM, n = 3, N = 2

Q: With “Aβ1-42: Amyloid beta peptide, human WT sequence; from Peptides&Elephants, Anaspec (untreated or HFIP-treated), Sigma-Aldrich, Synpeptide” as the substance, how does the “response of hFPRs (in addition to hFPR2)” value (hFPR1, hFPR2, hFPR3) read?
A: all other hFPRs also responded

Q: And the “capability to form aggregates in HBSS” value (ThT aggregation assay; Aβ1-42 from P&E, 22.5 μM, in HBSS, 37 °C)?
A: strong reduction in the capability to form aggregates

Q: And the “ThT fluorescence kinetics in the first 2 h” value (“ThT fluorescence kinetics” for short) (ThT aggregation assay; Aβ1-42 from Sigma-Aldrich, 22.5 μM in C1, 37 °C)?
A: did not drastically change

Q: And the “ThT fluorescence kinetics” value (ThT aggregation assay; Aβ1-42 from Synpeptide, 22.5 μM in C1, 37 °C)?
A: did not drastically change

Q: And the “ThT fluorescence kinetics” value (ThT aggregation assay; HFIP-treated Aβ1-42 from Anaspec (aggregation control), 22.5 μM, C1 with 0.2% DMSO, 37 °C)?
A: showed the expected increase

Q: And the “ThT fluorescence kinetics” value (ThT aggregation assay; non-HFIP–treated Aβ1-42 from Anaspec, 22.5 μM in C1, 37 °C)?
A: showed a reduction of fluorescence

Q: And the TEM aggregate morphology ([1]; Aβ1-42 from P&E)?
A: somewhat similar amorphous morphology

Q: And the TEM aggregate morphology ([1]; Aβ1-42 from Synpeptide)?
A: somewhat similar amorphous morphology

Q: What about the TEM aggregate morphology ([1]; HFIP-treated Aβ1-42 from Anaspec) of the same substance?
A: somewhat similar amorphous morphology

Q: What about the TEM aggregate morphology ([1]; non-HFIP–treated Aβ1-42 from Anaspec) of the same substance?
A: seemed to directly form long fibers

Q: And the “FPR responses in HBSS” value (human and mouse FPRs; 5 μM Aβ1-42 from P&E dissolved in HBSS, n = 3, N = 1)?
A: complete loss of nearly all FPR responses

Q: What about the “FPR responses in C1 compared with HBSS and Tris–NaCl” value (human and mouse FPRs; [8]) of the same substance?
A: most robust activation of human and mouse FPRs in C1

Q: What about the “FPR response pattern after extended storage” value (human and mouse FPRs; 10 μM Aβ1-42 (Synpeptide), stored in C1 at -20 °C for 6 months vs freshly dissolved, n = 1, N = 2) of the same substance?
A: Alterations of FPR responses

Q: What about the “Ca2+ response pattern of mouse and human FPRs” value (human and mouse FPRs; [9]) of the same substance?
A: elicited a similar response pattern as that of P&E

Q: What about the “Ca2+ response, mouse and human FPRs other than mFpr1” value (human and mouse FPRs; non-HFIP–treated Aβ1-42 from Anaspec, 10 μM, n = 3, N = 2) of the same substance?
A: failed to activate any other mouse or human FPR

Q: And the “threshold for minimal detectable activation, mFpr2” value (mFpr2; [10])?
A: 3 µM

Q: What about the “Ca2+ response, mFpr2” value (mFpr2; [11]) of the same substance?
A: weakly activated hFPR3, mFpr1, and mFpr2

Q: What about the “activation of mouse and human FPR1 in an earlier study” value (mouse and human FPR1) of the same substance?
A: failed to detect any activation of mouse and human FPR1

Q: What about the “FPR-dependent signaling with progressing aggregation” value (monocytes and microglia) of the same substance?
A: lost FPR-dependent signaling with progressing aggregation

Q: And the “Ca2+ response, mFpr1” value (mFpr1; Aβ1-42 from P&E in C1 buffer, compared with the other FPRs)?
A: even more sensitive and had a higher signal amplitude than any other receptor

Q: And the “threshold for minimal detectable activation, mFpr1” value (mFpr1; [10])?
A: 500 nM

Q: And the “Ca2+ response, mFpr1” value (mFpr1; HFIP-treated Aβ1-42 from Anaspec, 10 μM)?
A: weakly activated hFPR3, mFpr1, and mFpr2

Q: And the “mFpr1 activation over all suppliers, buffers and solvents” value (mFpr1; [12])?
A: activated under almost all conditions

Q: What about the “Ca2+ response, mFpr1” value (mFpr1; non-HFIP–treated Aβ1-42 from Anaspec, 10 μM) of the same substance?
A: potently activated mFpr1

Q: What about the “cAMP and ERK phosphorylation in rat microglia and astrocytes” value [2] of the same substance?
A: induced a decrease of cAMP and an induction of ERK phosphorylation

Q: And the FPR2-dependent pro-inflammatory effects [3]?
A: led to the induction of oxidative stress, the release of pro-inflammatory cytokines, and chemotaxis

Q: And the “intracellular uptake via FPRs” value [4]?
A: FPRs mediate the intracellular uptake of Aβ1-42

Q: What about the “calcium mobilization and ERK signaling” value (human and murine FPR2) of the same substance?
A: can induce calcium mobilization and ERK signaling

Q: And the “increase of hFPR3 response by DMSO” value (hFPR3; [13])?
A: 32%

Q: And the “hFPR3 response in Tris–NaCl versus C1” value (hFPR3; [8])?
A: did not significantly alter the responses of hFPR3

Q: And the “threshold for minimal detectable activation, hFPR3” value (hFPR3; [10])?
A: 3 µM

Q: What about the “Ca2+ response, hFPR3” value (hFPR3; [11]) of the same substance?
A: weakly activated hFPR3, mFpr1, and mFpr2

Q: And the “hFPR3 activation over all suppliers, buffers and solvents” value (hFPR3; [12])?
A: activated under almost all conditions

Q: What about the “decrease of hFPR1 response by DMSO” value (hFPR1 [5]; [13]) of the same substance?
A: 40%

Q: What about the “reduction of signal amplitude, hFPR1, in Tris–NaCl versus C1” value (hFPR1 [5]; [8]) of the same substance?
A: approximately 50%

Q: And the “Ca2+ response, hFPR1” value (hFPR1 [5]; Aβ1-42 from P&E in C1 buffer, n = 3, N = 2, compared with the other FPRs)?
A: even more sensitive and had a higher signal amplitude than any other receptor

Q: What about the “Ca2+ response, hFPR1” value (hFPR1 [5]; [9]) of the same substance?
A: failed to activate hFPR1

Q: And the “Ca2+ response, hFPR1” value (hFPR1 [5]; [14])?
A: the responses of hFPR1 and hFPR2 were lost

Q: What about the “threshold for minimal detectable activation, hFPR1” value (hFPR1 [5]; Ca2+ imaging, transfected HEK293T + Gα16, Calbryte 520, assay buffer C1 pH 7.2, peptide stock 30 μM in C1, n = 3, N = 1) of the same substance?
A: 3 µM

Q: What about the “Ca2+ response, hFPR2” value (hFPR2; [14]) of the same substance?
A: the responses of hFPR1 and hFPR2 were lost

Q: And the “threshold for minimal detectable activation, hFPR2” value (hFPR2; [10])?
A: 3 µM

Q: And the “Ca2+ response, mFpr3” value (mFpr3)?
A: did not respond

Q: And the “hFPR1 response to Aβ1-42 in earlier studies” value (hFPR1 [6])?
A: far less pronounced

Q: What about the “β-turn proportion in comparison with the Anaspec peptides” value ([7]; Aβ1-42 from P&E) of the same substance?
A: significantly elevated β-turn proportions

Q: What about the “β-turn proportion in comparison with the Anaspec peptides” value ([7]; Aβ1-42 from Synpeptide) of the same substance?
A: significantly elevated β-turn proportions
